Results from patent US20120264685A1 (priority 2009, published 2012).
Where a SMILES comes first, the peptide text is derived from it. [ ]: non-standard residue; d: D form. ξ: configuration not given here. ξαMeBip(2'-Et,4'-OMe) = CCc1cc(OC)ccc1-c1ccc(CC(C)(N)C(=O)O)cc1; ξαMePhe(2,6-F2) = CC(N)(Cc1c(F)cccc1F)C(=O)O; ξhhPhe = NC(CCCc1ccccc1)C(=O)O; ξαMeP = CC1(C(=O)O)CCCN1; ξαMeS = CC(N)(CO)C(=O)O

System: male C57BL/6J mice
Test: Acute single dose 120-min time-course experiment, in vivo glucose reduction
Set-up: unit not given here
Details: n = 8, Mean ± SEM
Experimental: Acute single dose 120-min time-course experiments were carried out in male C57BL/6J or db/db mice, age 8-12 weeks, bred in-house. The animals were housed in groups of 6 animals per cage, for a week, in order to habituate them to vivarium conditions (25+4° C., 60-65% relative humidity, 12:12 h light: dark cycle, with lights on at 7.30 am). All the animal experiments were carried out according to the internationally valid guidelines following approval by the ‘Zydus Research Center animal ethical committee’.
[…] On the day of experiment, food was withdrawn from all the cages, water was given ad-libitum and were kept for overnight fasting. Vehicle (normal saline)/test/standard compounds were administered intraperitoneally (i.p.) or orally, on a body weight basis. Soon after the 0 min. blood collection from each animal, the subsequent blood collections were done at 30, 60 and 120 or upto 240 min., via retro-orbital route, under light ether anesthesia (Chen, D., et al., Diabetes Obesity Metabolism, 2005, 7, 307. Kim, J. G. et al., Diabetes, 2003, 52, 751).
The blood samples were centrifuged and the separated serum was immediately subjected for the glucose estimation. The serum for insulin estimation was stored at −70° C. until used for the insulin estimation. The glucose estimation was carried out with DPEC-GOD/POD method (Ranbaxy Fine Chemicals Limited, Diagnostic division, India), using Spectramax-190, in 96-microwell plate reader (Molecular devices Corporation, Sunnyvale, Calif.). […] The AUC and BCAUC obtained from graphs were analyzed for one way ANOVA, followed by Dunnett's post test, using Graph Pad prism software. Furthermore, the insulin estimation was carried out using rat/mouse insulin ELISA kit (Linco research, Missouri USA).

| SMILES | blood glucose level (in vivo glucose reduction) (2 μM/kg, oral, 0 min) | blood glucose level (in vivo glucose reduction) (2 μM/kg, oral, 30 min) | blood glucose level (in vivo glucose reduction) (2 μM/kg, oral, 60 min) | blood glucose level (in vivo glucose reduction) (2 μM/kg, oral, 120 min) | further results |
| --- | --- | --- | --- | --- | --- |
| CCc1cc(OC)ccc1-c1ccc(CC(NC(=O)C(C)(CC(=O)O)NC(=O)C(C)(CO)NC(=O)[C@@H](NC(=O)C(C)(Cc2c(F)cccc2F)NC(=O)[C@@H](NC(=O)CNC(=O)[C@H](CCC(=O)O)NC(=O)C(C)(C)NC(=O)[C@H](Cc2c[nH]cn2)NC(=O)[C@@H](N)C(C)C)[C@@H](C)O)[C@@H](C)O)C(=O)NC(C)(CCCc2ccccc2)C(N)=O)cc1 (single isomer, unassigned) [Seq. ID. No. 129, VH-Aib-EGT-(αMe-2,6-diFPhe)-T-(αMe-Ser)-(αMe-Asp)-Bip(OMe)-(αMe-APPA)] | 183 ± 2.4 | 116 ± 3.1 | 112 ± 4.8 | 110 ± 2.5 |  |
| CCc1cc(OC)ccc1-c1ccc(CC(C)(NC(=O)[C@H](CC(=O)O)NC(=O)[C@H](CO)NC(=O)[C@@H](NC(=O)C(C)(Cc2ccccc2F)NC(=O)[C@@H](NC(=O)CNC(=O)[C@H](CCC(=O)O)NC(=O)[C@H](CO)NC(=O)[C@H](Cc2c[nH]cn2)NC(=O)[C@@H](N)C(C)C)[C@@H](C)O)[C@@H](C)O)C(=O)NC(C)(CCCc2ccccc2)C(N)=O)cc1 (single isomer, unassigned) [Seq. ID. No. 145, VHSEGT-(αMe-2FPhe)-TSD-(αMe-Bip(OMe))-(αMe-APPA)] | 184 ± 2.2 | 118 ± 3.3 | 112 ± 4.4 | 110 ± 2.9 |  |
| CCc1cc(OC)ccc1-c1ccc(CC(C)(NC(=O)[C@H](CC(=O)O)NC(=O)C(C)(CO)NC(=O)[C@@H](NC(=O)C(C)(Cc2c(F)cccc2F)NC(=O)[C@@H](NC(=O)CNC(=O)[C@H](CCC(=O)O)NC(=O)C(C)(C)NC(=O)[C@H](Cc2c[nH]cn2)NC(=O)[C@@H](N)C(C)C)[C@@H](C)O)[C@@H](C)O)C(=O)NC(C)(CCCc2ccccc2)C(N)=O)cc1 (single isomer, unassigned) [Seq. ID. No. 179, VH-Aib-EGT-(αMe-2,6-diFPhe)-T-(αMe-Ser)-D-(αMe-Bip(OMe))-(αMe-APPA)] |  |  |  |  | blood glucose level (in vivo glucose reduction) (20 nM/kg, i.p, 0 min): 182 ± 2.1; blood glucose level (in vivo glucose reduction) (20 nM/kg, i.p, 30 min): 121 ± 2.9; blood glucose level (in vivo glucose reduction) (20 nM/kg, i.p, 60 min): 130 ± 3.1; blood glucose level (in vivo glucose reduction) (20 nM/kg, i.p, 120 min): 138 ± 2.4 |
| CCc1cc(OC)ccc1-c1ccc(CC(C)(NC(=O)C(C)(CC(=O)O)NC(=O)[C@H](CO)NC(=O)[C@@H](NC(=O)[C@H](Cc2ccccc2)NC(=O)[C@@H](NC(=O)CNC(=O)[C@H](CCC(N)=O)NC(=O)C(C)(C)NC(=O)[C@H](Cc2c[nH]cn2)NC(=O)[C@@H](N)C(C)C)[C@@H](C)O)[C@@H](C)O)C(=O)NC(CCCc2ccccc2)C(N)=O)cc1 (single isomer, unassigned) [Seq. ID. No. 59, VH-Aib-QGTFTS-(αMe-Asp)-(αMe-Bip(OMe))-(APPA)] | 184 ± 2.5 | 115 ± 3.6 | 113 ± 4.2 | 110 ± 2.4 |  |
| CCc1cc(OC)ccc1-c1ccc(CC(NC(=O)[C@H](CC(=O)O)NC(=O)[C@H](CO)NC(=O)[C@@H](NC(=O)C(C)(Cc2c(F)cccc2F)NC(=O)[C@@H](NC(=O)CNC(=O)[C@H](CCC(=O)O)NC(=O)C(C)(C)NC(=O)[C@H](Cc2c[nH]cn2)NC(=O)[C@@H](N)C(C)C)[C@@H](C)O)[C@@H](C)O)C(=O)NC(C)(CCCc2ccccc2)C(N)=O)cc1 (single isomer, unassigned) [Seq. ID. No. 105, VH-Aib-EGT-(αMe-2,6-diFPhe)-TSD-Bip(OMe)-(αMe-APPA)] | 185 ± 2.1 | 115 ± 2.8 | 112 ± 4.9 | 111 ± 2.2 |  |
| CCc1cc(OC)ccc1-c1ccc(CC(C)(NC(=O)[C@H](CC(=O)O)NC(=O)C(C)(CO)NC(=O)[C@@H](NC(=O)C(C)(Cc2ccccc2F)NC(=O)[C@@H](NC(=O)CNC(=O)[C@H](CCC(N)=O)NC(=O)[C@H](C)NC(=O)[C@H](Cc2c[nH]cn2)NC(=O)[C@@H](N)C(C)C)[C@@H](C)O)[C@@H](C)O)C(=O)NC(C)(CCCc2ccccc2)C(N)=O)cc1 (single isomer, unassigned) [Seq. ID. No. 166, VHAQGT-(αMe-2FPhe)-T-(αMe-Ser)-D-(αMe-Bip(OMe))-(αMe-APPA)] |  |  |  |  | blood glucose level (in vivo glucose reduction) (0.5 μM/kg, oral, 0 min): 184 ± 2.5; blood glucose level (in vivo glucose reduction) (0.5 μM/kg, oral, 30 min): 115 ± 3.6; blood glucose level (in vivo glucose reduction) (0.5 μM/kg, oral, 60 min): 113 ± 4.2; blood glucose level (in vivo glucose reduction) (0.5 μM/kg, oral, 120 min): 110 ± 2.4 |
| CCc1cc(OC)ccc1-c1ccc(CC(C)(NC(=O)[C@H](CC(=O)O)NC(=O)C(C)(CO)NC(=O)[C@@H](NC(=O)C(C)(Cc2c(F)cccc2F)NC(=O)[C@@H](NC(=O)CNC(=O)[C@H](CCC(=O)O)NC(=O)C2(C)CCCN2C(=O)[C@H](Cc2c[nH]cn2)NC(=O)[C@@H](N)C(C)C)[C@@H](C)O)[C@@H](C)O)C(=O)NC(CCCc2ccccc2)C(N)=O)cc1 (stereo partly drawn) [Seq. ID. No. 56, VH-(αMe-Pro)-EGT-(αMe-2,6-diFPhe)-T-(αMe-Ser)-D-(αMe-Bip(OMe))-(APPA)] (H-VH[ξαMeP]EGT[ξαMePhe(2,6-F2)]T[ξαMeS]D[ξαMeBip(2'-Et,4'-OMe)][ξhhPhe]-NH2) |  |  |  |  | blood glucose level (in vivo glucose reduction) (5 nM/kg, i.p, 0 min): 179 ± 5.0; blood glucose level (in vivo glucose reduction) (5 nM/kg, i.p, 30 min): 120 ± 3.6; blood glucose level (in vivo glucose reduction) (5 nM/kg, i.p, 60 min): 129 ± 2.0; blood glucose level (in vivo glucose reduction) (5 nM/kg, i.p, 120 min): 148 ± 1.7 |
| CCc1cc(OC)ccc1-c1ccc(CC(C)(NC(=O)C(C)(CC(=O)O)NC(=O)[C@H](CO)NC(=O)[C@@H](NC(=O)[C@H](Cc2ccccc2)NC(=O)[C@@H](NC(=O)CNC(=O)[C@H](CCC(=O)O)NC(=O)C2(C)CCCN2C(=O)[C@H](Cc2c[nH]cn2)NC(=O)[C@@H](N)C(C)C)[C@@H](C)O)[C@@H](C)O)C(=O)NC(CCCc2ccccc2)C(N)=O)cc1 (single isomer, unassigned) [Seq. ID. No. 64, VH-(αMe-Pro)-EGTFTS-(αMe-Asp)-(αMe-Bip(OMe))-(APPA)] | 183 ± 2.4 | 116 ± 3.1 | 112 ± 4.8 | 110 ± 2.5 |  |
| CCc1cc(OC)ccc1-c1ccc(CC(C)(NC(=O)C(C)(CC(=O)O)NC(=O)[C@H](CO)NC(=O)[C@@H](NC(=O)[C@H](Cc2ccccc2)NC(=O)[C@@H](NC(=O)CNC(=O)[C@H](CCC(=O)O)NC(=O)C(C)(C)NC(=O)[C@H](Cc2c[nH]cn2)NC(=O)[C@@H](N)C(C)C)[C@@H](C)O)[C@@H](C)O)C(=O)NC(C)(CCCc2ccccc2)C(N)=O)cc1 (single isomer, unassigned) [Seq. ID. No. 187, VH-Aib-EGTFTS-(αMe-Asp)-(αMe-Bip(OMe))-(αMe-APPA)] | 183 ± 2.4 | 119 ± 3.1 | 112 ± 4.8 | 110 ± 2.5 |  |
